Measured values as given in patent US20240092750A1, “AQUEOUS FORMULATIONS OF CYTOTOXIC TAXANES WITH CYCLODEXTRIN” (Northwestern University, priority 2022, published 2024).
“Also recorded” adds a separate entry of the source.

Legend:
Tubulin protein = target: T1, Tubulin protein (Sus scrofa, UniProt P02550+P02554); test: In vitro tubulin polymerization assay (turbidity at 350 nm); format: biochemical, porcine; conditions: 20 minutes, 37° C.
T1 construct: Tubulin protein (>99% pure, extracted from porcine brain); from tissue; host or cells: porcine brain
Method: Tubulin protein (>99% pure, extracted from porcine brain) was reconstituted in buffer solution (80 mM PIPES pH 6.9, 2 mM MgCl2, 0.5 mM EGTA, and 10% (v/v) glycerol) to a concentration of 1 mg/mL. 100 μL of this tubulin solution was added per well of a black, 96-well plate, which had been warmed to 37° C. prior to the experiment. This was followed by the addition of either guanosine triphosphate (GTP), Paclitaxel (PTX), or ODDA-PTX-CyD, where the final concentration in each respective well was 1 mM GTP, 10 μM PTX, or 10 μM ODDA-PTX-CyD. Changes in turbidity of the samples were monitored via 96-well plate reader at 350 nm, where a recorded increase in optical density supports the formation of microtubules in solution. Each set of conditions were measured in triplicate and monitored over 20 minutes at 37° C.

[1] = Aqueous solubility tests in milliQ water or dPBS
Method: Solubility Tests: To verify ODDA-PTX aqueous solubility, characterization methods in milliQ water or dPBS were performed.

T1 sequence (P02554 whole entry): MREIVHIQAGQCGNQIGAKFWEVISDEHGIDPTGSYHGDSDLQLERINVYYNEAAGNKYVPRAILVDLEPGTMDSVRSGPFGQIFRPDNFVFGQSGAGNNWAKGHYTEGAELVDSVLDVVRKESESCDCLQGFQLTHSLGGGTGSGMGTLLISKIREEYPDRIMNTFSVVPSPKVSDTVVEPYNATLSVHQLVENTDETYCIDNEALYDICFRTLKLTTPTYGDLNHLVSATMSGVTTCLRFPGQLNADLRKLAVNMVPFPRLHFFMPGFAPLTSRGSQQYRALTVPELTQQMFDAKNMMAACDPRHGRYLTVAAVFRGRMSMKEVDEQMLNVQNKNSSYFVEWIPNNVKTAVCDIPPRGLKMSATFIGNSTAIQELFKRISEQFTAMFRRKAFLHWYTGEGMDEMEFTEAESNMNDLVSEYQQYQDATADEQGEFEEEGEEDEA
T1 sequence (P02550 whole entry): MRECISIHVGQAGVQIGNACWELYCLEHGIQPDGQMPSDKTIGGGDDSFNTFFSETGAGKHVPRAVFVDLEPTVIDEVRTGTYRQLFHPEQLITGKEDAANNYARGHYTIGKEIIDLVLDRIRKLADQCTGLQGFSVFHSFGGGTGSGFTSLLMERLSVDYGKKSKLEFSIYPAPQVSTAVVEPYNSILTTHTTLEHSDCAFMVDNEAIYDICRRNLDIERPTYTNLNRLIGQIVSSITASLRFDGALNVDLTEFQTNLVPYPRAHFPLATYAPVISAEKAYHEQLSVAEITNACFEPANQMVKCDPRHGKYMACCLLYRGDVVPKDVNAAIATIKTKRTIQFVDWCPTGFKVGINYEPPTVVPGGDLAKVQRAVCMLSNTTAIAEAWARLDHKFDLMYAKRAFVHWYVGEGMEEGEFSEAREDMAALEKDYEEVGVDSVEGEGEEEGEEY

For Nc1nc2c(ncn2[C@@H]2O[C@H](COP(=O)(O)OP(=O)(O)OP(=O)(O)O)[C@@H](O)[C@H]2O)c(=O)[nH]1 [GTP, guanosine triphosphate], the “change in optical density (microtubule formation)” value (Tubulin protein; 1 mM GTP) was “did not portray significant increases in optical density”.
With CC(=O)O[C@H]1C(=O)[C@@]2(C)[C@H]([C@H](OC(=O)c3ccccc3)[C@]3(O)C[C@H](OC(=O)[C@H](OC(=O)CCCCCCCCCCCCCCCCC(=O)O)[C@@H](NC(=O)c4ccccc4)c4ccccc4)C(C)=C1C3(C)C)[C@]1(OC(C)=O)CO[C@@H]1C[C@@H]2O [ODDA-PTX, 1,18-octadecandioic acid-paclitaxel] the “solubility in water or buffer alone (in words)” value ([1]; water alone / buffer alone) was “insolubility; also recorded: not soluble in water alone” and the “aqueous solubility with respect to ODDA-PTX” value ([1]; with respect to ODDA-PTX) was 21 µg/mL.
For CC(=O)O[C@H]1C(=O)[C@@]2(C)[C@H]([C@H](OC(=O)c3ccccc3)[C@]3(O)C[C@H](OC(=O)[C@H](O)[C@@H](NC(=O)c4ccccc4)c4ccccc4)C(C)=C1C3(C)C)[C@]1(OC(C)=O)CO[C@@H]1C[C@@H]2O [paclitaxel], the “change in optical density (microtubule formation)” value (Tubulin protein; 10 μM) was “resulted in the formation of microtubules”.
